Where two headings read alike, the source gives them in different places.
Tests used:
[1] = system: Calcium-reconstituted sheep blood; experiment: Activated clotting time (ACT); settings: individual drug at 0.6 ng/mg
Description: The activated clotting time (ACT) evaluation of anticoagulants was performed in Calcium-reconstituted sheep blood and recorded employing the Hemochron® Response device. […] A target amount of drug solution was then added into the test tube. […] The tube was gently shaken before being inserted into the Hemochron Response detector. The ACT read out was recorded and reported. The ACT of the control blood in the absence of any drug as first determined to establish a baseline. Then ACT was determined in the presence of different concentrations of the drug as a single component. Selected drug combinations, were then tested to evaluate for potential synergy in action between the two drugs.

[2] = Tissue drug concentration in stented and adjacent artery segments (LCMS); format: in vivo, porcine; settings: pig, artery tissue adjacent to the stented segment, other: drug eluting stent implanted in coronary artery, Table 4B, stent arm not named; for concentration at 90 days: within 90 days; for concentration at 3 h: within 3 hours; for concentration at 28 days: within 28 days
Excerpt: The stented artery was cut longitudinally with surgical scissors. The stents were separated from the tissue.

[3] = system: Human Aortic SMC (HAoSMC); experiment: HAoSMC cell proliferation assay; format: cell-based; settings: 72 hours incubation
Description: Cell proliferation assay was done in 96-well format. Low passage cells were trypsinized and seeded in 96 well plates at a density of ˜4000 cells/well. The cells are allowed to attach overnight in a CO2 incubator. Next day, the medium was removed and replaced with fresh complete medium containing various concentrations of the test compounds. The final concentration of vehicle (DMSO) in the test medium was 0.1%. After adding test compounds, the cells were incubated for 72 hours. Following this period, the medium was removed and then added fresh medium (100 μl) containing CellTiter Aqueous (lx concentration final) to the wells and incubated for 2 hours in the CO2 incubator. At the end of incubation measured fluorescence with a plate-reader. Controlled incubations with untreated cells and blank incubations containing only medium were included and tested similarly. Based on the cell viability assay the percentage inhibition of the cell proliferation was determined at the different concentrations of the drug tested.

[4] = system: Tissue factor generated antiplatelet; settings: cited from earlier work
[5] = Coated balloon tissue concentration in vivo (Table 7); design: species or system porcine; settings: for concentration at 15 min: 300 μg
Excerpt: The balloon (e.g., the balloon of a balloon-catheter of a stent-delivery system) was advanced to a site to be treated (e.g., an occluded or weakened section of a blood vessel to be opened up or supported by a stent) in the body of a subject and inflated to a desired inflation diameter. Before, during, and/or after inflation of the balloon, the balloon released the therapeutic composition to, into, or at the treatment site, or to, into, or at an area adjacent thereto, by any suitable mechanism (e.g., concentration gradient, diffusion, pressure, or mechanical force, or a combination thereof). […] The tissue concentration is shown in ng/mg tissue. The coated balloons were evaluated for drug delivery efficiency in an animal study. Drug transfer of the coated balloons into arterial segments were evaluated using harvested pig arteries. The arterial wall was separated after animal study. The arterial walls were then stored in an individual labeled vial. All samples were kept on dry ice until stored in the −80° C. freezer. All samples were then frozen to […] prior to being analyzed.

Row | SMILES | ACT [1] | concentration at 90 days [2] [ng/g] | IC50 [4] [nM] | IC50 for Tissue factor generated antiplatelet [4] [ng/mg] | concentration at 3 h [2] [ng/g] | concentration at 28 days [2] [ng/g] | other results
1 | COc1ccc(-n2nc(C(N)=O)c3c2C(=O)N(c2ccc(N4CCCCC4=O)cc2)CC3)cc1 [Apixaban] | 522 |  |  |  |  |  | 
2 | CC1CNc2c(cccc2S(=O)(=O)N[C@@H](CCCNC(=N)N)C(=O)N2CC[C@@H](C)C[C@@H]2C(=O)O)C1 (some centres unmarked) [Argatroban] | 301 | ~3740 | 79 | 0.04 |  |  | HAoSMC proliferation inhibition [3]: small to no inhibition
3 | CO[C@@H]1C[C@H](C[C@@H](C)[C@@H]2CC(=O)[C@H](C)/C=C(\C)[C@@H](O)[C@@H](OC)C(=O)[C@H](C)C[C@H](C)/C=C/C=C/C=C(\C)[C@@H](O)C[C@@H]3CC[C@@H](C)[C@@](O)(O3)C(=O)C(=O)N3CCCC[C@H]3C(=O)O2)CC[C@H]1O [Novolimus, 16-O-desmethyl-rapamycin] |  |  |  |  |  |  | tissue concentration of tissue adjacent to the balloon treated segment ([5]; Superficial Femoral Artery (SFA) tissue, within or at 6 hours): at least 5.94 ng/mg; tissue concentration of tissue adjacent to the balloon treated segment ([5]; Superficial Femoral Artery (SFA) tissue, within or at 3 day): at least 4.4 ng/mg; tissue concentration of tissue adjacent to the balloon treated segment ([5]; Superficial Femoral Artery (SFA) tissue, within or at 7 days): at least 1.16 ng/mg; tissue concentration of tissue adjacent to the balloon treated segment ([5]; coronary artery tissue, within or at 6 hours): at least 6.52 ng/mg; tissue concentration of tissue adjacent to the balloon treated segment ([5]; coronary artery tissue, within or at 3 day): at least 3.77 ng/mg; tissue concentration of tissue adjacent to the balloon treated segment ([5]; coronary artery tissue, within or at 7 days): at least 1.47 ng/mg
4 | O=C(NC[C@H]1CN(c2ccc(N3CCOCC3=O)cc2)C(=O)O1)c1ccc(Cl)s1 [Rivaroxaban] |  |  | 312 | 0.136 | ~21000 | ~340 | concentration at 1 h ([2]; within one hour from injury and/or implant): ~38000 ng/g; concentration at 15 min ([5]; pig, Superficial Femoral Artery (SFA) tissue, within or at 15 minutes, read-out: tissue concentration of tissue adjacent to the balloon treated segment): ≥ 40600 ng/g; concentration at 15 min ([5]; pig, coronary artery tissue, within or at 15 min, read-out: tissue concentration of tissue adjacent to the balloon treated segment): ≥ 1230 ng/g
5 | CO[C@H]1C[C@@H]2CC[C@@H](C)[C@@](O)(O2)C(=O)C(=O)N2CCCC[C@H]2C(=O)O[C@H]([C@H](C)C[C@@H]2CC[C@@H](O)[C@H](OC)C2)CC(=O)[C@H](C)/C=C(\C)[C@@H](O)[C@@H](OC)C(=O)[C@H](C)C[C@H](C)/C=C/C=C/C=C/1C [Sirolimus, rapamycin (also called sirolimus)] |  | ~1280 |  |  | ~27000 | ~940 | concentration at 7 days ([5]; pig, coronary artery tissue, within or at 7 days, read-out: tissue concentration of tissue adjacent to the balloon treated segment): ≥ 1450 ng/g
